The NIST ThermoML archive (doi:10.1016/j.fluid.2008.01.010)
± gives the expanded uncertainty stated by the source.

Legend:
[1] = 298.15 K; 101.33 kPa; Liquid
[2] = refractive index (Na D-line) (dimensionless); conditions: 298.15 K; 101.33 kPa; Liquid; Standard Abbe refractometry

SMILES | mass density [1] [kg/m3] | refractive index [2]
CC(C)CO [2-methyl-1-propanol] | 797.83 ± 0.48 | 1.3938 ± 0.0005
CC(=O)OCC(C)C [2-methylpropyl ethanoate] | 866.12 ± 0.67 | 1.3876 ± 0.0006
OCC(O)CO [glycerol] | 1258.5 ± 0.6 | 1.4726 ± 0.0005
